Laboratory results: the supplement of paper PMC10307832

Key:
Experiment in all cases: relative viability (nuclei count vs DMSO), 5 days (fraction); higher = more cells survive
XMD14-99 + Pemetrexed = compound: CN1CCN(CC1)C2=CC(=C(C=C2)NC3=NC(=C(S3)C(=O)C4=C(C=CC=C4Cl)Cl)N)OC [XMD14-99] + Nc1nc2[nH]cc(CCc3ccc(C(=O)N[C@@H](CCC(=O)O)C(=O)O)cc3)c2c(=O)[nH]1 [Pemetrexed] (partner 0.2 µM)
Outline: (§1)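 For relative viability, nuclei counts in treated wells were divided by those in vehicle wells. Lung cancer cell lines had been pin-tool dosed in 1536-well plates the day after seeding and cultured for 5 days, then fixed and stained in one step (final 0.05% Triton X-100, 1% formaldehyde, 1 ug/ml Hoechst) and imaged at 4×. Doses were one drug alone or a fixed anchor-drug dose plus five library-drug doses (not always all listed) in √10 steps, and values are duplicate-plate medians.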

XMD14-99 + Linsitinib = compound: CN1CCN(CC1)C2=CC(=C(C=C2)NC3=NC(=C(S3)C(=O)C4=C(C=CC=C4Cl)Cl)N)OC [XMD14-99] + C[C@]1(O)C[C@@H](c2nc(-c3ccc4ccc(-c5ccccc5)nc4c3)c3c(N)nccn32)C1 [Linsitinib] (partner 1 µM)
Outline: as §1

AZD1208 + Lapatinib = compound: N[C@@H]1CCCN(c2c(/C=C3\SC(=O)NC3=O)cccc2-c2ccccc2)C1 [AZD1208] + CS(=O)(=O)CCNCc1ccc(-c2ccc3ncnc(Nc4ccc(OCc5cccc(F)c5)c(Cl)c4)c3c2)o1 [Lapatinib] (partner 2 µM)
Outline: as §1

XMD14-99 + Dasatinib = compound: CN1CCN(CC1)C2=CC(=C(C=C2)NC3=NC(=C(S3)C(=O)C4=C(C=CC=C4Cl)Cl)N)OC [XMD14-99] + Cc1nc(Nc2ncc(C(=O)Nc3c(C)cccc3Cl)s2)cc(N2CCN(CCO)CC2)n1 [Dasatinib] (partner 0.075 µM)
Outline: as §1

Row | Cell Line | relative viability (XMD14-99 + Pemetrexed; first compound 0.08 µM) | relative viability (XMD14-99 + Pemetrexed; first compound 0.8 µM) | relative viability (XMD14-99 + Pemetrexed; first compound 2.53 µM) | relative viability (XMD14-99 + Pemetrexed; first compound 8 µM) | relative viability (XMD14-99 + Linsitinib; first compound 0.08 µM) | relative viability (XMD14-99 + Linsitinib; first compound 0.8 µM) | relative viability (XMD14-99 + Linsitinib; first compound 2.53 µM) | relative viability (XMD14-99 + Linsitinib; first compound 8 µM) | relative viability (AZD1208 + Lapatinib; first compound 0.08 µM) | relative viability (AZD1208 + Lapatinib; first compound 0.253 µM) | relative viability (AZD1208 + Lapatinib; first compound 0.8 µM) | relative viability (AZD1208 + Lapatinib; first compound 2.53 µM) | relative viability (AZD1208 + Lapatinib; first compound 8 µM) | relative viability (XMD14-99 + Dasatinib; first compound 0.08 µM) | relative viability (XMD14-99 + Dasatinib; first compound 0.8 µM) | relative viability (XMD14-99 + Dasatinib; first compound 2.53 µM) | relative viability (XMD14-99 + Dasatinib; first compound 8 µM)
1 | EKVX | 0.366 | 0.338 | 0.328 | 0.362 | 1.01 | 1.05 | 0.993 | 0.81 | 0.194 | 0.191 | 0.194 | 0.168 | 0.176 | 0.497 | 0.561 | 0.5 | 0.373
2 | LXF-289 | 0.692 | 0.862 | 0.85 | 0.781 | 0.894 | 0.926 | 0.939 | 0.798 | 0.941 | 0.954 | 0.917 | 0.958 | 0.868 | 0.238 | 0.173 | 0.208 | 0.204
3 | NCI-H661 | 0.86 | 0.796 | 0.779 | 0.678 | 0.5 | 0.58 | 0.502 | 0.441 | 0.397 | 0.425 | 0.396 | 0.383 | 0.46 | 0.976 | 0.86 | 0.828 | 0.627
4 | NCI-H2087 | 0.681 | 0.644 | 0.597 | 0.611 | 0.894 | 0.695 | 0.679 | 0.646 | 1.11 | 1.32 | 1.13 | 1.47 | 0.9 | 0.739 | 0.714 | 0.55 | 0.305
5 | NCI-H1793 | 0.947 | 1 | 0.83 | 0.631 | 0.9 | 0.979 | 0.703 | 0.738 | 0.563 | 0.982 | 0.629 | 0.678 | 0.58 | 0.403 | 0.362 | 0.355 | 0.334
6 | LC-2-ad | 0.268 | 0.298 | 0.268 | 0.293 | 0.892 | 0.817 | 0.83 | 0.563 | 0.961 | 1.01 | 1.04 | 0.94 | 1.03 | 0.541 | 0.643 | 0.535 | 0.476
7 | COR-L 105 | 1.14 | 0.855 | 0.965 | 0.788 | 0.924 | 0.665 | 0.879 | 0.703 | 0.366 | 0.334 | 0.299 | 0.29 | 0.36 | 0.345 | 0.388 | 0.255 | 0.281
8 | NCI-H1355 | 1.09 | 1.06 | 0.945 | 0.896 | 0.796 | 0.809 | 0.74 | 0.633 | 1.04 | 0.995 | 0.777 | 1.09 | 0.71 | 0.777 | 0.702 | 0.655 | 0.476
9 | H3255 | 0.558 | 0.526 | 0.518 | 0.433 | 0.999 | 0.871 | 0.765 | 0.694 | 0.258 | 0.231 | 0.225 | 0.219 | 0.22 | 0.437 | 0.496 | 0.347 | 0.249
